The record followed here is US9932311B2, “Antidiabetic tricyclic compounds” (Merck Sharp & Dohme Corp., priority 2013, dated 2018).

One may read the EC50 as the concentration that produces a half-maximal response.

Test [1] has as its target T1, Human GPR40 (Homo sapiens, UniProt O14842). The experiment in a line: Inositol Phosphate Turnover (IP1) Assay 1. On the set-up: expressed in transfected cells; host or cells: HEK cells stably expressing the aequorin reporter. The following applies: HEK cells stably expressing human GPR40, 96-well, 3H-inositol labeling, SPA beads. It is filed as cell-based. As for the experimental part: (§1) Human and mouse GPR40 stable cell-lines were generated in CHO cells stably expressing NFAT BLA (Beta-lactamase). A human GPR40 stable cell-line was generated in HEK cells stably expressing the aequorin expressing reporter. The expression plasmids were transfected using lipofectamine (Life Technologies) following manufacturer's instructions. Stable cell-lines were generated following drug selection.
The assay was performed in 96-well format. HEK cells stably expressing human GPR40 were plated to be 60-80% confluent within 72 h. After 72 h, the plates were aspirated and the cells washed with inositol-free DMEM (ICN). The wash media was replaced with 150 μL of 3H-inositol labeling media (inositol-free media containing 0.4% human albumin or 0.4% mouse albumin, 1× pen/strep antibiotics, glutamine, 25 mM HEPES to which was added 3H-myo-inositol NEN #NET114A 1 mCi/mL, 25 Ci/mmol diluted 1:150 in loading media with a final specific radioactivity of 1 μCi/150 μL). Alternatively, the human and mouse albumin can be added after the overnight labeling step before the addition of LiCl.
The assay was typically run the next day after 18 h labeling. On the day of the assay, 5 μL of 300 mM LiCl was added to all wells and incubated at 37 degrees for 20 min 0.75 μL of 200× compounds were added and incubated with the cells for 60 min at 37 degrees. The media was then aspirated off and the assay terminated with the addition of 60 μL 10 mM formic acid. The cells were lysed for 60 min at room temperature. 15-30 μL of lysate was mixed with 70 μL/1 mg YSi SPA beads (Amersham) in clear bottom Isoplates. The plates were shaken for 2 h at room temperature. Beads were allowed to settle and the plates were counted in the Wallac Microbeta.

Test [2] deals with T1, Human GPR40. In words: FLIPR assay (agonist-induced calcium mobilization). On the set-up: expressed in transfected cells. The following applies: GPR40/CHO NFAT BLA cells. Type of test: cell-based. As for the experimental part: as §1
FLIPR (Fluorimetric Imaging Plate Reader, Molecular Devices) assays were performed to measure agonist-induced calcium mobilization of the stable clones. For the FLIPR assay, one day before assay, GPR40/CHO NFAT BLA cells were seeded into black-wall-clear-bottom 384-well plates (Costar) at 1.4×10e4 cells/20 μL medium/well. The cells were incubated with 20 μl/well of the assay buffer (HBSS, 0.1% BSA, 20 mM HEPES, 2.5 mM probenecid, pH 7.4) containing 8 μM fluo-4, AM, 0.08% pluronic acid at room temperature for 100 minutes. Fluorescence output was measured using FLIPR. Compounds were dissolved in DMSO and diluted to desired concentrations with assay buffer. 13.3 μL/well of compound solution was added.

T1 sequence (O14842 whole entry): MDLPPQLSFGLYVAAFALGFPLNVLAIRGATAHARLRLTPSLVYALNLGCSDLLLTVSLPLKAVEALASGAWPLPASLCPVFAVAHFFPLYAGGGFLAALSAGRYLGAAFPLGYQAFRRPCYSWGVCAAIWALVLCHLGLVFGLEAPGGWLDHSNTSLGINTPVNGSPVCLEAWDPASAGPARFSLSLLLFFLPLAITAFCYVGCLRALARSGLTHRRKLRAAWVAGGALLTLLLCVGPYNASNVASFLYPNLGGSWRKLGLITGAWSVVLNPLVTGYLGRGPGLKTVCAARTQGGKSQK

Take `Cc1cc(OCCCS(C)(=O)=O)ccc1-c1cc(COc2cc3c(cn2)[C@H]2[C@@H](C3)[C@@H]2C(=O)O)c(F)cc1C(F)(F)F` [Example 2, (5aR,6S,6aS)-3-((4-fluoro-2′-methyl-4′-(3-(methyl-sulfonyl)-propoxy)-6-(tri-fluoromethyl)-[1,1′-biphenyl]-3-yl)methoxy)-5,5a,6,6a-tetrahydrocyclo-propa[4,5]cyclopenta [1,2-c]pyridine-6-carboxylic acid]: the EC50 at Human GPR40 [1] came out at 0.00298 µM; at Human GPR40 [2] it was 0.00575 µM.
In the case of `CC(C)(O)CCOc1ccc(-c2cc(COc3cc4c(cn3)[C@H]3[C@@H](C4)[C@@H]3C(=O)O)c(F)cc2C(F)(F)F)c(C(F)F)c1` [Example 13, (5aR,6S,6aS)-3-((2'-(difluoromethyl)-4-fluoro-4'-(3-hydroxy-3-methyl-butoxy)-6-(trifluoromethyl)-[1,1'-biphenyl]-3-yl)-methoxy)-5,5a,6,6a-tetra-hydrocyclo-propa[4,5]cyclopenta [1,2-c]pyridine-6-carboxylic acid], the EC50 on Human GPR40 [1] is 0.00594 µM; at Human GPR40 [2], 0.00966 µM.
For `Cc1cc(OCCC(O)C(C)(C)O)cc(C)c1-c1cc(COc2cc3c(cn2)[C@H]2[C@@H](C3)[C@@H]2C(=O)O)c(F)cc1F` (stereo partly drawn) [Example 18, (5aR,6S,6aS)-3-((4′-((3,4-dihydroxy-4-methylpentyl)oxy)-4,6-difluoro-2′,6′-dimethyl-[1,1′-biphenyl]-3-yl)methoxy)-5,5a,6,6a-tetrahydrocycloprop[4,5]cyclopenta[1,2-c]pyridine-6-carboxylic acid], the EC50 at Human GPR40 [1] is 0.0192 µM.
`Cc1cc(OCCC(C)(C)O)ccc1-c1cc(COc2cc3c(cn2)[C@H]2[C@@H](C3)[C@@H]2C(=O)O)c(F)cc1C(F)F` [Example 4, (5aR,6S,6aS)-3-((6-(difluoro-methyl)-4-fluoro-4′-(3-hydroxy-3-methyl-butoxy)-2′-methyl-[1,1′-biphenyl]-3-yl)methoxy)-5,5a,6,6a-tetrahydrocyclo-propa[4,5] cyclopenta[1,2-c] pyridine-6-carboxylic acid]: the half-maximal effective concentration (EC50) on Human GPR40 [1] came to 0.00525 µM; on Human GPR40 [2], 0.0144 µM.
Consider `Cc1cc(OCCC2(O)COC2)ccc1-c1cc(COc2cc3c(cn2)[C@H]2[C@@H](C3)[C@@H]2C(=O)O)c(F)cc1C(F)(F)F` [Example 14, (5aR,6S,6aS)-3-((4-fluoro-4′-(2-(3-hydroxyoxetan-3-yl)ethoxy)-2′-methyl-6-(trifluoromethyl)-[1,1′-biphenyl]-3-yl)methoxy)-5,5a,6,6a-tetrahydrocyclopropa[4,5]cyclopenta[1,2-c]pyridine-6-carboxylic acid], for which the EC50 on Human GPR40 [1] was 0.00554 µM; at Human GPR40 [2] it was 0.0104 µM.
Taken in the same sequence, the figures for `CC(C)(O)CCOc1ncc(-c2cc(COc3cc4c(cn3)[C@H]3[C@@H](C4)[C@@H]3C(=O)O)c(F)cc2C(F)(F)F)cc1F` [Example 15, (5aR,6S,6aS)-3-((2-fluoro-5-(5-fluoro-6-(3-hydroxy-3-methylbutoxy)pyridin-3-yl)-4-(trifluoromethyl)benzyl)oxy)-5,5a,6,6a-tetrahydrocyclopropa[4,5]cyclopenta[1,2-c]pyridine-6-carboxylic acid] were 0.00797 µM and 0.00488 µM.
`CS(=O)(=O)CCCOc1ccc(-c2cc(COc3cc4c(cn3)[C@H]3[C@@H](C4)[C@@H]3C(=O)O)c(F)cc2C(F)(F)F)c(F)c1` [Example 8, (5aR,6S,6aS)-3-((2′,4-difluoro-4′-(3-(methyl-sulfonyl)-propoxy)-6-(trifluoromethyl)-[1,1′-biphenyl]-3-yl)methoxy)-5,5a,6,6a-tetrahydro-cyclopropa[4,5]cyclo-penta[1,2-c]pyridine-6-carboxylic acid]: the half-maximal effective concentration (EC50) on Human GPR40 [1] was 0.00654 µM; on Human GPR40 [2], 0.0092 µM.
As to `CC(C)(O)CCOc1ccc(-c2cc(COc3cc4c(cn3)[C@H]3[C@@H](C4)[C@@H]3C(=O)O)c(F)cc2C(F)(F)F)c(F)c1` [Example 7, (5aR,6S,6aS)-3-((2′,4-difluoro-4′-(3-hydroxy-3-methylbutoxy)-6-(trifluoro-methyl)-[1,1′-biphenyl]-3-yl)methoxy)-5,5a,6,6a-tetrahydrocyclopropa [4,5]cyclopenta[1,2-c] pyridine-6-carboxylic acid], the figures for the EC50 on Human GPR40 [1] and at Human GPR40 [2] were 0.0114 µM and 0.0112 µM, respectively.
In the case of `CC(C)(O)CCOc1ccc(-c2cc(COc3cc4c(cn3)[C@H]3[C@@H](C4)[C@@H]3C(=O)O)c(F)cc2C(F)(F)F)cc1F` [Example 6, (5aR,6S,6aS)-3-((3′,4-difluoro-4′-(3-hydroxy-3-methyl-butoxy)-6-(trifluoro-methyl)-[1,1′-biphenyl]-3-yl)methoxy)-5,5a,6,6a-tetrahydrocyclopropa [4,5]cyclopenta[1,2-c] pyridine-6-carboxylic acid], the figures for the EC50 at Human GPR40 [1] and at Human GPR40 [2] were 0.0147 µM and 0.0109 µM, respectively.
For `CC(O)(CCOc1ccc(-c2cc(COc3cc4c(cn3)[C@H]3[C@@H](C4)[C@@H]3C(=O)O)c(F)cc2C(F)(F)F)cc1)C(F)F` (stereo partly drawn) [Example 12, (5aR,6S,6aS)-3-((4′-(4,4-difluoro-3-hydroxy-3-methylbutoxy)-4-fluoro-6-(trifluoromethyl)-[1,1′-biphenyl]-3-yl)methoxy)-5,5a,6,6a-tetrahydrocyclopropa[4,5]cyclopenta[1,2-c]pyridine-6-carboxylic acid], the EC50 on Human GPR40 [1] came out at 0.0203 µM; at Human GPR40 [2] it was 0.0125 µM.
`Cc1nc(OCCC(C)(O)C(F)F)ccc1-c1cc(COc2cc3c(cn2)[C@H]2[C@@H](C3)[C@@H]2C(=O)O)c(F)cc1C(F)(F)F` (stereo partly drawn) [Example 16, (5aR,6S,6aS)-3-((5-(6-(4,4-difluoro-3-hydroxy-3-methyl-butoxy)-2-methyl-pyridin-3-yl)-2-fluoro-4-(trifluoro-methyl)-benzyl)-oxy)-5,5a,6,6a-tetrahydro-cyclo-propa[4,5]cyclopenta [1,2-c]pyridine-6-carboxylic acid] showed an EC50 at Human GPR40 [1] of 0.0104 µM.
For `CC(C)(O)CCOc1cc(F)c(-c2cc(COc3cc4c(cn3)[C@H]3[C@@H](C4)[C@@H]3C(=O)O)c(F)cc2C(F)(F)F)c(F)c1` [Example 10, (5aR,6S,6aS)-3-((2′,4,6′-trifluoro-4′-(3-hydroxy-3-methylbutoxy)-6-(trifluoromethyl)-[1,1′-biphenyl]-3-yl)methoxy)-5,5a,6,6a-tetrahydrocyclo-propa[4,5]cyclopenta [1,2-c]pyridine-6-carboxylic acid], the EC50 on Human GPR40 [1] turned out to be 0.0272 µM; on Human GPR40 [2] it was 0.0064 µM.
`CC(C)(O)CCOc1ccc(-c2cc(COc3cc4c(cn3)[C@H]3[C@@H](C4)[C@@H]3C(=O)O)c(F)cc2C(F)(F)F)cc1` [Example 5, (5aR,6S,6aS)-3-((4-fluoro-4′-(3-hydroxy-3-methylbutoxy)-6-(trifluoromethyl)-[1,1′-biphenyl]-3-yl)methoxy)-5,5a,6,6a-tetrahydrocyclopropa[4,5]cyclopenta[1,2-c]pyridine-6-carboxylic acid]: the EC50 amounted to 0.00624 µM on Human GPR40 [1] and 0.0249 µM on Human GPR40 [2].
With `O=C(O)[C@H]1[C@@H]2Cc3cc(OCc4cc(-c5c(F)cc(OCCC6(O)COC6)cc5F)c(C(F)(F)F)cc4F)ncc3[C@@H]21` [Example 9, (5aR,6S,6aS)-3-((2′,4,6′-trifluoro-4′-(2-(3-hydroxy-oxetan-3-yl)ethoxy)-6-(trifluoromethyl)-[1,1′-biphenyl]-3-yl)methoxy)-5,5a,6,6a-tetrahydrocyclopropa [4,5]cyclopenta[1,2-c]pyridine-6-carboxylic acid], the figures for the EC50 on Human GPR40 [1] and on Human GPR40 [2] were 0.0111 µM and 0.00689 µM, respectively.
